Measured values taken from article PMC8395219, “Comparative Analysis of Single-Molecule Dynamics of TRPV1 and TRPV4 Channels in Living Cells” (International Journal of Molecular Sciences, 2021).

Target: T1, TRPV4 (Homo sapiens, UniProt Q9HBA0)
T1 construct: HaloTag fused to the N-terminus of human TRPV4, expressed in TRPV4-KO HEK293 cells
Experiment: FLIPR calcium mobilization assay in transfected TRPV4-KO HEK293 cells (agonist dose-response)
Type: cell-based

T1 sequence (Q9HBA0 whole entry, the tested form may be a part): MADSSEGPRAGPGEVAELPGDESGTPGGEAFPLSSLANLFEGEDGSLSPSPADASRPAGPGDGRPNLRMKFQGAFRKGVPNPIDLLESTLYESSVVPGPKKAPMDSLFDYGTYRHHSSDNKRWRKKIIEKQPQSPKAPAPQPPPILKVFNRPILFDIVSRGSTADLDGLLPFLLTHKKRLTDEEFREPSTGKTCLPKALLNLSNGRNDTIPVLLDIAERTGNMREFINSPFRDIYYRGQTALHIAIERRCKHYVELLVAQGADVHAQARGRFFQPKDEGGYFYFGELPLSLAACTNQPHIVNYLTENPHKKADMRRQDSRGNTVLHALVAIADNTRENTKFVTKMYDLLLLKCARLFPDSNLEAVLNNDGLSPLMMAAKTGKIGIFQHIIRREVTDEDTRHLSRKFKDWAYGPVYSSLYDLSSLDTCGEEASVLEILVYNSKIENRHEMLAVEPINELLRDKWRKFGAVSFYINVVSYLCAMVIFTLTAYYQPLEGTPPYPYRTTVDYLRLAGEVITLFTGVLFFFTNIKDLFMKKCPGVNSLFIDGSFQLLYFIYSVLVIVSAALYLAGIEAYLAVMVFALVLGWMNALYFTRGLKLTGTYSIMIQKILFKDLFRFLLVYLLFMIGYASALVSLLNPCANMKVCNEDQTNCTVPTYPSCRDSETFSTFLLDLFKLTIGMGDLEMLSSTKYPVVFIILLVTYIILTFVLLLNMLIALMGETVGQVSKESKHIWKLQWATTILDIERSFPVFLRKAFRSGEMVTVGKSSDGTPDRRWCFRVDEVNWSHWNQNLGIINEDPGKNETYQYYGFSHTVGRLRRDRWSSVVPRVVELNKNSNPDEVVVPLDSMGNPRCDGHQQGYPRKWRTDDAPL

`CC(C)C[C@H](NC(=O)c1cc2ccccc2s1)C(=O)N1CCN(C(=O)[C@H](CO)NS(=O)(=O)c2ccc(Cl)cc2Cl)CC1` [GSK1016790A, N-((1S)-1-{[4-((2S)-2-{[(2,4-dichlorophenyl)sulfonyl]amino}-3-hydroxypropanoyl)-1-piperazinyl]carbonyl}-3-methylbutyl)-1-benzothiophene-2-carboxamide] was tested, and the EC50 was 26 nM.
